Results: ChEMBL document CHEMBL3286323, “The design and synthesis of novel SGLT2 inhibitors: C-glycosides with benzyltriazolopyridinone and phenylhydantoin as the aglycone moieties” (Bioorg Med Chem, 2014)

Columns and labels:
[1] = molecular target: T1, Sodium/glucose cotransporter 2 (Homo sapiens, UniProt P31639); experiment: Inhibition of human SGLT2 expressed in CHOK1 cells assessed as inhibition of [14C]-AMG uptake after 3 hrs by microbeta scintillation counting analysis; assay type: cell-based, CHO-K1
T1 sequence (P31639 whole entry): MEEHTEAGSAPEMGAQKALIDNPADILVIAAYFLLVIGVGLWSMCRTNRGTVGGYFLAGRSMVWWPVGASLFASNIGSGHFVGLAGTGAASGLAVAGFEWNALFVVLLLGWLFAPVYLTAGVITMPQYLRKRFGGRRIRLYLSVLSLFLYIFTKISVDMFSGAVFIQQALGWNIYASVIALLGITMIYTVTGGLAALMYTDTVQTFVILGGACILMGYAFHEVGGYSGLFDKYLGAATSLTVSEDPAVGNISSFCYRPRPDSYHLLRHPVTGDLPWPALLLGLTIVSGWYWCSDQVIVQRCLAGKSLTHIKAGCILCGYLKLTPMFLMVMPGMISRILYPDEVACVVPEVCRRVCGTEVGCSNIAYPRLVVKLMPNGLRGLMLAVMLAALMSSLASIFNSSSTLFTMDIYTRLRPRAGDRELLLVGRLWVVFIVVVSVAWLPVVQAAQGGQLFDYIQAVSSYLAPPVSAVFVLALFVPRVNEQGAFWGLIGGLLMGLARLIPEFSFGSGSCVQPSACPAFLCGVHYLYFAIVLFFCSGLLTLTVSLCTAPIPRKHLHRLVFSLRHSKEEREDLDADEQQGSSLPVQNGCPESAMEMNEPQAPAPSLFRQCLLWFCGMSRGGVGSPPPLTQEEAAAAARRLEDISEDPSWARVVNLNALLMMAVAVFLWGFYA

[2] = molecular target: T2, Sodium/glucose cotransporter 1 (Homo sapiens, UniProt P13866); experiment: Inhibition of human SGLT1 expressed in CHOK1 cells assessed as inhibition of [14C]-AMG uptake after 3 hrs by microbeta scintillation counting analysis; assay type: cell-based, CHO-K1
T2 sequence (P13866 whole entry): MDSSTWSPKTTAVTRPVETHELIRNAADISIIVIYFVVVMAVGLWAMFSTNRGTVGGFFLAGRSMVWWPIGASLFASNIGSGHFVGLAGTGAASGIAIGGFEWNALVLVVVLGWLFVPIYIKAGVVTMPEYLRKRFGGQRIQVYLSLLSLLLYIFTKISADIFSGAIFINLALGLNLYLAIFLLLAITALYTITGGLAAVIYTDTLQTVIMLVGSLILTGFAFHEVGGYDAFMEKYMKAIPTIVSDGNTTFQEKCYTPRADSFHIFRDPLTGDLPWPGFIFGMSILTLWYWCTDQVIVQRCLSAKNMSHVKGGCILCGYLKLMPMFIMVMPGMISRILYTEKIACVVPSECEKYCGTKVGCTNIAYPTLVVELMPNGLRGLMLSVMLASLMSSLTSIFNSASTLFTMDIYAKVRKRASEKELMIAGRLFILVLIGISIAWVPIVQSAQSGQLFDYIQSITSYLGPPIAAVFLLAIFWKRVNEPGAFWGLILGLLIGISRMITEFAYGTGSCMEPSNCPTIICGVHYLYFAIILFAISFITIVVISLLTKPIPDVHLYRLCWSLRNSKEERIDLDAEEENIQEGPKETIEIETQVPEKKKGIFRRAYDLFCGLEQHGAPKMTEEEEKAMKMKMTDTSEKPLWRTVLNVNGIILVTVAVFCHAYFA

Cytochrome P450 1A2 = molecular target: T3, Cytochrome P450 1A2 (Homo sapiens, UniProt P05177); experiment: Inhibition of CYP1A2 (unknown origin); assay type: ADME
T3 sequence (P05177 whole entry): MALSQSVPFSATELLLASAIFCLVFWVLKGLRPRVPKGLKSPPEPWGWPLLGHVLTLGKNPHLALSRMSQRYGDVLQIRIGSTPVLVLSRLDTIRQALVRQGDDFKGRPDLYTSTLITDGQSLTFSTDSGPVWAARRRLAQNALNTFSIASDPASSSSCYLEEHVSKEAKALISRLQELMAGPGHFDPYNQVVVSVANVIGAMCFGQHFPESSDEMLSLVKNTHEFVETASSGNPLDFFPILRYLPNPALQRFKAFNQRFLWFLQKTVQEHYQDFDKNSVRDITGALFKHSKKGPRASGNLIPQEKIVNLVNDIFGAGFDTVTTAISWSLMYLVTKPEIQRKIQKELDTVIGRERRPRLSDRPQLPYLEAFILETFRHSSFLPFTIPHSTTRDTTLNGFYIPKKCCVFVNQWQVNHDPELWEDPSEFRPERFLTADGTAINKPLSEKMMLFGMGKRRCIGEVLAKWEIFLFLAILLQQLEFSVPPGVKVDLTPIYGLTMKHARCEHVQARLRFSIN

Cytochrome P450 2B6 = molecular target: T4, Cytochrome P450 2B6 (Homo sapiens, UniProt P20813); experiment: Inhibition of CYP2B6 (unknown origin); assay type: ADME
T4 sequence (P20813 whole entry): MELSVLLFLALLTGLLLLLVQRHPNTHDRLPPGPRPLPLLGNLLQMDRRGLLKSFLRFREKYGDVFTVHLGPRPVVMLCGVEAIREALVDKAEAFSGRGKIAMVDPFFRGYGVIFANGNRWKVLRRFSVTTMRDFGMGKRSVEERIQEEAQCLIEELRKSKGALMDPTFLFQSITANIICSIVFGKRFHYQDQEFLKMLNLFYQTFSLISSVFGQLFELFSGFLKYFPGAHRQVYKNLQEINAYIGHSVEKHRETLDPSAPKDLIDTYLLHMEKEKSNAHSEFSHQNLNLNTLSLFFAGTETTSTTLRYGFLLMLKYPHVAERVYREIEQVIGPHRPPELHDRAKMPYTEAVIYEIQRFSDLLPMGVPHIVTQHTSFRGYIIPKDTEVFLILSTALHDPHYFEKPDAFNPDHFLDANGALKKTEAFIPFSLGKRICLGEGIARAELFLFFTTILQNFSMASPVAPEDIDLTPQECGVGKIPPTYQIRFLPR

Cytochrome P450 2C9 = Cytochrome P450 2C9 (Homo sapiens, UniProt P11712); experiment: Inhibition of CYP2C9 (unknown origin); assay type: ADME
Chain of Cytochrome P450 2C9 (P11712 whole entry): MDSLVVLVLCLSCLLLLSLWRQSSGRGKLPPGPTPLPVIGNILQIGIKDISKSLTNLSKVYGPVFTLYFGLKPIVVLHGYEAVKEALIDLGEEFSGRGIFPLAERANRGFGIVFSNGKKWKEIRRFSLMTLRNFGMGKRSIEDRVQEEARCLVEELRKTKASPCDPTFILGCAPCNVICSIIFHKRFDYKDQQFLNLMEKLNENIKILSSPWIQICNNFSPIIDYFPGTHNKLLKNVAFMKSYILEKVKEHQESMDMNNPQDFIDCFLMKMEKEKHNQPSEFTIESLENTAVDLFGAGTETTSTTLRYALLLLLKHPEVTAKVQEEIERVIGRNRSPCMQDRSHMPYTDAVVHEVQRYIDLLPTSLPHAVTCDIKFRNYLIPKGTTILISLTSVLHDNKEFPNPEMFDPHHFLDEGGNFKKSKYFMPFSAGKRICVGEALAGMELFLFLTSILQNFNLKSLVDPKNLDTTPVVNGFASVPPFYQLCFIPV

Cytochrome P450 2C19 = Cytochrome P450 2C19 (Homo sapiens, UniProt P33261); experiment: Inhibition of CYP2C19 (unknown origin); assay type: ADME
Chain of Cytochrome P450 2C19 (P33261 whole entry): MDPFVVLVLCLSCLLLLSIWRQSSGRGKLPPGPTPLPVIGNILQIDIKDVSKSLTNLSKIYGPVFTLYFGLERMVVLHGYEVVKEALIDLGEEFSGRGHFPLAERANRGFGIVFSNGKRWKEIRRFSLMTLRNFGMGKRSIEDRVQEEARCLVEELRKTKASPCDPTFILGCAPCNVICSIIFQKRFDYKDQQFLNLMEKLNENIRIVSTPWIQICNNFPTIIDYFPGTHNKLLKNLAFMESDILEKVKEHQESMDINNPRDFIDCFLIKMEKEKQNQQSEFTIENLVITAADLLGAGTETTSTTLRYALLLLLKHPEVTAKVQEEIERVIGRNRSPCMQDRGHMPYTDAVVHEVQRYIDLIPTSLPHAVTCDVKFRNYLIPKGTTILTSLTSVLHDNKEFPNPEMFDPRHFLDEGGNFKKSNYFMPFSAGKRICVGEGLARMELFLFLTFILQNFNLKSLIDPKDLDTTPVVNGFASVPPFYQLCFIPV

Cytochrome P450 2D6 = Cytochrome P450 2D6 (Homo sapiens, UniProt P10635); experiment: Inhibition of CYP2D6 (unknown origin); assay type: ADME
Chain of Cytochrome P450 2D6 (P10635 whole entry): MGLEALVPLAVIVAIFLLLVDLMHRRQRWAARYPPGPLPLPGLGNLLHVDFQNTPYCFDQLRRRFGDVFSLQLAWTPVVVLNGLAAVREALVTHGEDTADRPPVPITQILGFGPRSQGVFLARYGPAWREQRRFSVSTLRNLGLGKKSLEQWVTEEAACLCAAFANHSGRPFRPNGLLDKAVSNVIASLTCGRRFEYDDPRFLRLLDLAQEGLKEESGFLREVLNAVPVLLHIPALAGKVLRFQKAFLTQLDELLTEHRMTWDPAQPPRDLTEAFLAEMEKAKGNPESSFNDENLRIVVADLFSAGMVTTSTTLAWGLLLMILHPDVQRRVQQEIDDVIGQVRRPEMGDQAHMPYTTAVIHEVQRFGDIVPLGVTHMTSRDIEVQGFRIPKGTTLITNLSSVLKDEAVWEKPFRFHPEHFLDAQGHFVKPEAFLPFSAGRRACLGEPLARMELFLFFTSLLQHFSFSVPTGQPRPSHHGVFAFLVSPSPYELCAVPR

Cytochrome P450 3A4 = Cytochrome P450 3A4 (Homo sapiens, UniProt P08684); experiment: Inhibition of CYP3A4 (unknown origin); assay type: ADME
Chain of Cytochrome P450 3A4 (P08684 whole entry): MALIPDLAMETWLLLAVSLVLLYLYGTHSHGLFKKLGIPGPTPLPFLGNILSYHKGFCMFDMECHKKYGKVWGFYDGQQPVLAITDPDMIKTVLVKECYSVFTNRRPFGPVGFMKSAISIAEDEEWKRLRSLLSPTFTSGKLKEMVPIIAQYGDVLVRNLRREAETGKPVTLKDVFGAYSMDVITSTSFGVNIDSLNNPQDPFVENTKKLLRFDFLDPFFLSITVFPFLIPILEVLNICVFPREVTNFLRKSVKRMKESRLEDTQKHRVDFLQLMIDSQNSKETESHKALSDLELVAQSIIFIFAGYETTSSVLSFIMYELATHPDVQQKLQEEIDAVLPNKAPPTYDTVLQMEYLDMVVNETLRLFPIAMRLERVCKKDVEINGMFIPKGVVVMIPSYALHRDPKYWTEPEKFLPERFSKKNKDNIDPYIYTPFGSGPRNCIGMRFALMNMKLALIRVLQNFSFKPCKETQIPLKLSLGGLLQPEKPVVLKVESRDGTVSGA

[3] = Intrinsic clearance in human liver microsomes; assay type: ADME; settings: read-out: CLH
[4] = Intrinsic clearance in rat liver microsomes; assay type: ADME; settings: read-out: CLH
[5] = Oral bioavailability in rat; assay type: ADME, organism-based; settings: in vivo
[6] = Half life in rat; assay type: ADME, organism-based; settings: in vivo

SMILES | IC50 [1] [µM] | IC50 [2] [µM] | other results
O=c1n(Cc2cc([C@@H]3O[C@H](CO)[C@@H](O)[C@H](O)[C@H]3O)ccc2Cl)nc2ccc(CO)cn12 | 0.141 | – | –
O=c1n(Cc2cc([C@@H]3O[C@H](CO)[C@@H](O)[C@H](O)[C@H]3O)ccc2Cl)nc2ccc(C(F)(F)F)cn12 | 0.762 | – | –
COc1ccn2c(=O)n(Cc3cc([C@@H]4O[C@H](CO)[C@@H](O)[C@H](O)[C@H]4O)ccc3Cl)nc2c1 | 5.48 | > 90 | –
O=c1n(Cc2cc([C@@H]3O[C@H](CO)[C@@H](O)[C@H](O)[C@H]3O)ccc2Cl)nc2c(Cl)cccn12 | 9 | > 90 | –
Cc1cc2nn(Cc3cc([C@@H]4O[C@H](CO)[C@@H](O)[C@H](O)[C@H]4O)ccc3Cl)c(=O)n2cc1Cl | 0.033 | – | IC50 (Cytochrome P450 1A2): > 11 µM; IC50 (Cytochrome P450 2B6): > 11 µM; IC50 (Cytochrome P450 2C9): > 11 µM; IC50 (Cytochrome P450 2C19): > 11 µM; IC50 (Cytochrome P450 2D6): > 11 µM; IC50 (Cytochrome P450 3A4): > 11 µM; microsomal CLint [3]: 3.6 µL/min/mg; microsomal CLint [4]: 2.8 µL/min/mg
CN1C(=O)CN(c2ccc(Cc3cc([C@@H]4O[C@H](CO)[C@@H](O)[C@H](O)[C@H]4O)ccc3Cl)cc2)C1=O | 0.489 | 90 | –
CN1C(=O)N(c2ccc(Cc3cc([C@@H]4O[C@H](CO)[C@@H](O)[C@H](O)[C@H]4O)ccc3Cl)cc2)C(C)(C)C1=O | 0.248 | 83.1 | –
CCN1C(=O)CN(c2ccc(Cc3cc([C@@H]4O[C@H](CO)[C@@H](O)[C@H](O)[C@H]4O)ccc3Cl)cc2)C1=O | 0.0109 | – | IC50 (Cytochrome P450 1A2): > 11 µM; IC50 (Cytochrome P450 2B6): > 11 µM; IC50 (Cytochrome P450 2C9): > 11 µM; IC50 (Cytochrome P450 2C19): > 11 µM; IC50 (Cytochrome P450 2D6): > 11 µM; IC50 (Cytochrome P450 3A4): > 11 µM; microsomal CLint [3]: 1.3 µL/min/mg; microsomal CLint [4]: 1.9 µL/min/mg; bioavailability [5]: 4%; half-life [6]: 35 min
O=c1n(Cc2cc([C@@H]3O[C@H](CO)[C@@H](O)[C@H](O)[C@H]3O)ccc2Cl)nc2cc(Cl)ccn12 | 0.089 | – | –
O=c1n(Cc2cc([C@@H]3O[C@H](CO)[C@@H](O)[C@H](O)[C@H]3O)ccc2Cl)nc2c(F)cccn12 | 3.3 | > 90 | –
O=c1n(Cc2cc([C@@H]3O[C@H](CO)[C@@H](O)[C@H](O)[C@H]3O)ccc2Cl)nc2ccc(F)cn12 | – | > 90 | –
O=c1n(Cc2cc([C@@H]3O[C@H](CO)[C@@H](O)[C@H](O)[C@H]3O)ccc2Cl)nc2ccccn12 | – | > 90 | –
O=c1n(Cc2cc([C@@H]3O[C@H](CO)[C@@H](O)[C@H](O)[C@H]3O)ccc2Cl)nc2ccc(Cl)cn12 | 0.08 | > 90 | –
Cc1ccn2c(=O)n(Cc3cc([C@@H]4O[C@H](CO)[C@@H](O)[C@H](O)[C@H]4O)ccc3Cl)nc2c1 | – | > 90 | –
O=c1n(Cc2cc([C@@H]3O[C@H](CO)[C@@H](O)[C@H](O)[C@H]3O)ccc2Cl)nc2cc(OCC(F)(F)F)ccn12 | 5.7 | > 90 | –
O=c1n(Cc2cc([C@@H]3O[C@H](CO)[C@@H](O)[C@H](O)[C@H]3O)ccc2Cl)nc2ccc(Br)cn12 | 0.107 | > 90 | –
O=c1n(Cc2cc([C@@H]3O[C@H](CO)[C@@H](O)[C@H](O)[C@H]3O)ccc2Cl)nc2cc(C(F)(F)F)ccn12 | 0.252 | > 90 | –
Cc1ccc2nn(Cc3cc([C@@H]4O[C@H](CO)[C@@H](O)[C@H](O)[C@H]4O)ccc3Cl)c(=O)n2c1 | 0.12 | > 90 | –
Cc1cccc2nn(Cc3cc([C@@H]4O[C@H](CO)[C@@H](O)[C@H](O)[C@H]4O)ccc3Cl)c(=O)n12 | 9.92 | > 90 | –
